Data reported in patent publication US20160009693A1, “HERBICIDAL COMPOUNDS” (SYNGENTA LIMITED, priority 2013, published 2016).

Tests used:
Format in all cases: in vivo
Conditions in all cases: applied at 1000 g/h, evaluated after 13 days
[1] = system: Alopecurus myosuroides (ALOMY); assay: Herbicidal glasshouse test, post-emergence, ALOMY
Experimental: (§1) Seeds of a variety of test species are sown in standard soil in pots (Alopecurus myosuroides (ALOMY), Setaria faberi (SETFA), Echinochloa crus-galli (ECHCG), Solanum nigrum (SOLNI), Amaranthus retoflexus (AMARE), Ipomoea hederacea (IPOHE)). After cultivation for one day (pre-emergence) or after 8 days cultivation (post-emergence) under controlled conditions in a glasshouse (at 24/16° C., day/night; 14 hours light; 65% humidity), the plants are sprayed with an aqueous spray solution derived from the formulation of the technical active ingredient in acetone / water (50:50) solution containing 0.5% Tween 20 (polyoxyethelyene sorbitan monolaurate, CAS RN 9005-64-5). […] The test plants are then grown in a glasshouse under controlled conditions in a glasshouse (at 24/16° C., day/night; 14 hours light; 65% humidity) and watered twice daily. After 13 days for pre and post-emergence, the test is evaluated for the percentage damage caused to the plant. The biological activities are shown in the following table on a five point scale (5=80-100%; 4=60-79%; 3=40-59%; 2=20-39%; 1=0-19%).

[2] = system: Amaranthus retoflexus (AMARE); assay: Herbicidal glasshouse test, post-emergence, AMARE
Experimental: as §1

[3] = system: Setaria faberi (SETFA); assay: Herbicidal glasshouse test, post-emergence, SETFA
Experimental: as §1

[4] = system: Solanum nigrum (SOLNI); assay: Herbicidal glasshouse test, pre-emergence, SOLNI
Experimental: as §1

[5] = system: Alopecurus myosuroides (ALOMY); assay: Herbicidal glasshouse test, pre-emergence, ALOMY
Experimental: as §1

[6] = system: Ipomoea hederacea (IPOHE); assay: Herbicidal glasshouse test, pre-emergence, IPOHE
Experimental: as §1

[7] = system: Echinochloa crus-galli (ECHCG); assay: Herbicidal glasshouse test, post-emergence, ECHCG
Experimental: as §1

[8] = system: Setaria faberi (SETFA); assay: Herbicidal glasshouse test, pre-emergence, SETFA
Experimental: as §1

[9] = system: Ipomoea hederacea (IPOHE); assay: Herbicidal glasshouse test, post-emergence, IPOHE
Experimental: as §1

[10] = system: Amaranthus retoflexus (AMARE); assay: Herbicidal glasshouse test, pre-emergence, AMARE
Experimental: as §1

[11] = system: Solanum nigrum (SOLNI); assay: Herbicidal glasshouse test, post-emergence, SOLNI
Experimental: as §1

[12] = system: Echinochloa crus-galli (ECHCG); assay: Herbicidal glasshouse test, pre-emergence, ECHCG
Experimental: as §1

SMILES	POST Application ALOMY, percentage damage (five point scale) [1]	POST Application AMARE, percentage damage (five point scale) [2]	POST Application SETFA, percentage damage (five point scale) [3]	PRE Application SOLNI, percentage damage (five point scale) [4]	PRE Application ALOMY, percentage damage (five point scale) [5]	PRE Application IPOHE, percentage damage (five point scale) [6]	POST Application ECHCG, percentage damage (five point scale) [7]	PRE Application SETFA, percentage damage (five point scale) [8]	POST Application IPOHE, percentage damage (five point scale) [9]	PRE Application AMARE, percentage damage (five point scale) [10]	POST Application SOLNI, percentage damage (five point scale) [11]	PRE Application ECHCG, percentage damage (five point scale) [12]
CCCCn1c(=O)c(C(=O)Nc2nnnn2C)nn(C)c1=O [Compound 1.001]	5 (5=80-100%)	5 (5=80-100%)	5 (5=80-100%)	5 (5=80-100%)	5 (5=80-100%)	5 (5=80-100%)	5 (5=80-100%)	5 (5=80-100%)	5 (5=80-100%)	5 (5=80-100%)	5 (5=80-100%)	5 (5=80-100%)
Cn1nnnc1NC(=O)c1nn(C)c(=O)n(-c2ccccc2)c1=O [Compound 1.002]	5 (5=80-100%)	5 (5=80-100%)	5 (5=80-100%)	5 (5=80-100%)	5 (5=80-100%)	5 (5=80-100%)	5 (5=80-100%)	5 (5=80-100%)	5 (5=80-100%)	5 (5=80-100%)	5 (5=80-100%)	5 (5=80-100%)
Cn1nnnc1NC(=O)c1nn(C)c(=O)n(-c2cccc(F)c2F)c1=O [Compound 1.003]	5 (5=80-100%)	5 (5=80-100%)	5 (5=80-100%)	5 (5=80-100%)	5 (5=80-100%)	5 (5=80-100%)	5 (5=80-100%)	5 (5=80-100%)	5 (5=80-100%)	5 (5=80-100%)	5 (5=80-100%)	5 (5=80-100%)
C=CCn1c(=O)c(C(=O)Nc2nnnn2C)nn(C)c1=O [Compound 1.004]	4 (4=60-79%)	5 (5=80-100%)	4 (4=60-79%)	5 (5=80-100%)	3 (3=40-59%)	4 (4=60-79%)	4 (4=60-79%)	2 (2=20-39%)	5 (5=80-100%)	5 (5=80-100%)	5 (5=80-100%)	4 (4=60-79%)
CC(C)Cn1c(=O)c(C(=O)Nc2nnnn2C)nn(C)c1=O [Compound 1.005]	5 (5=80-100%)	5 (5=80-100%)	5 (5=80-100%)	5 (5=80-100%)	5 (5=80-100%)	4 (4=60-79%)	5 (5=80-100%)	5 (5=80-100%)	5 (5=80-100%)	5 (5=80-100%)	5 (5=80-100%)	5 (5=80-100%)
CCc1ccc(-n2c(=O)c(C(=O)Nc3nnnn3C)nn(C)c2=O)cc1 [Compound 1.006]	5 (5=80-100%)	5 (5=80-100%)	5 (5=80-100%)	5 (5=80-100%)	5 (5=80-100%)	5 (5=80-100%)	5 (5=80-100%)	5 (5=80-100%)	5 (5=80-100%)	5 (5=80-100%)	5 (5=80-100%)	5 (5=80-100%)
C=CCn1nc(C(=O)Nc2nnnn2C)c(=O)n(-c2cccc(F)c2)c1=O [Compound 1.007]	5 (5=80-100%)	5 (5=80-100%)	5 (5=80-100%)	5 (5=80-100%)	2 (2=20-39%)	5 (5=80-100%)	5 (5=80-100%)	1 (1=0-19%)	5 (5=80-100%)	5 (5=80-100%)	5 (5=80-100%)	5 (5=80-100%)
Cn1nnnc1NC(=O)c1nn(C)c(=O)n(-c2ccc(F)c(Cl)c2)c1=O [Compound 1.008]	5 (5=80-100%)	5 (5=80-100%)	5 (5=80-100%)	5 (5=80-100%)	5 (5=80-100%)	5 (5=80-100%)	5 (5=80-100%)	5 (5=80-100%)	5 (5=80-100%)	5 (5=80-100%)	5 (5=80-100%)	5 (5=80-100%)
CSc1ccc(-n2c(=O)c(C(=O)Nc3nnnn3C)nn(C)c2=O)cc1 [Compound 1.009]	5 (5=80-100%)	5 (5=80-100%)	5 (5=80-100%)	5 (5=80-100%)	2 (2=20-39%)	4 (4=60-79%)	5 (5=80-100%)	1 (1=0-19%)	5 (5=80-100%)	5 (5=80-100%)	5 (5=80-100%)	2 (2=20-39%)
CC(Cl)c1ccc(-n2c(=O)c(C(=O)Nc3nnnn3C)nn(C)c2=O)cc1 (stereo not drawn) [Compound 1.010]	5 (5=80-100%)	5 (5=80-100%)	5 (5=80-100%)	5 (5=80-100%)	5 (5=80-100%)	5 (5=80-100%)	5 (5=80-100%)	5 (5=80-100%)	5 (5=80-100%)	4 (4=60-79%)	5 (5=80-100%)	5 (5=80-100%)
